# Source: patent US11897848B2, “Crystalline forms of ozanimod and processes for preparation thereof” (RECEPTOS LLC, priority 2016, dated 2024)
# How the values were obtained:
# Format in all cases: physicochemical
# [1] = Hygroscopicity assessment by dynamic vapor sorption (DVS); details: for Weight Gain under 80% RH: DVS, 25° C.; for Hygroscopicity according to the criteria of hygroscopicity: based on weight gain under 80% RH
# Procedure: Dynamic Vapor Sorption (DVS) is measured via an SMS (Surface Measurement Systems Ltd.) intrinsic DVS. Typical Parameters for DVS test are as follows: • Temperature: 25° C. • Gas and flow rate: N2, 200 mL/min • dm/dt: 0.002%/min • RH range: 0% RH to 95% RH
# Dynamic vapor sorption (DVS) was applied to test hygroscopicity of Form CS9 with about 10 mg of samples. The DVS plot was substantially as depicted in FIG. 14.
# Dynamic vapor sorption (DVS) was applied to test hygroscopicity of Form CS10 with about 10 mg of samples. The DVS plot is substantially as depicted in FIG. 15.
# Dynamic vapor sorption (DVS) was applied to test hygroscopicity of Form CS11 with about 10 mg of samples. The DVS plot is substantially as depicted in FIG. 16.
# [2] = Solubility assessment in H2O, saturated solution measured by HPLC
# Procedure: Form CS9 of ozanimod was suspended into H2O to obtain saturated solution. After being equilibrated for 1 h, 4 h and 24 h, concentrations of the saturated solutions were measured by HPLC.
# [3] = Particle size distribution test (laser particle size analyzer, wet process); details: for MV (average particle size calculated by volume): dispersion medium Isopar G; for D10 / D50 / D90: volume distribution
# Procedure: The particle size distribution test in the present disclosure is acquired by the S3500 laser particle size analyzer of Microtrac. Microtrac S3500 is equipped with the SDC (Sample Delivery Controller). The test is carried out by wet process, and the dispersion medium is Isopar G The parameters are as follow:
# Certain amount of samples of Form CS9, Form CS10 and Form CS11 of ozanimod were taken for particle size distribution test.
# The abbreviations used in the invention are explained as follows: • Mv: Average particle size calculated by volume. • D10: particle size which accounts for 10% of the particle size distribution (volume distribution). • D50: particle size which accounts for 50% of the particle size distribution (volume distribution), also known as the median diameter. • D90: particle size which accounts for 90% of the particle size distribution (volume distribution).
# [4] = Stability assessment in chamber with controlled temperature and relative humidity (XRPD, HPLC); details: for Stability (verdict in words): after storage for 2 weeks
# Procedure: Sample of Form CS10 was placed in chamber with controlled temperature and relative humidity at 40° C./75% RH for 2 weeks, and then the solids were sampled for XRPD test. The XRPD pattern overlay was substantially as depicted in FIG. 23 (from top to bottom: XRPD pattern of ozanimod Form CS10 before and after being stored under 40° C./75% RH for 2 weeks).
# Two samples of Form CS11 of ozanimod were placed in chamber with controlled temperature and relative humidity at 25° C./60% RH and 40° C./75% RH for 2 weeks. XRPD and HPLC were used to test the crystalline form and chemical purity. The XRPD overlay pattern was substantially as depicted in FIG. 24 (from top to bottom: XRPD pattern of ozanimod Form CS11 before and after being stored under 25° C./60% RH and 40° C./75% RH for 2 weeks).
SMILES,Weight Gain under 80% RH [1] [%],Hygroscopicity according to the criteria of hygroscopicity [1],Solubility in water (verdict in words) [2],"solubility at 1 h ([2]; water, thermodynamic from solid, equilibrated for 1 h) [µg/mL]","solubility at 4 h ([2]; water, thermodynamic from solid, equilibrated for 4 h) [µg/mL]",MV (average particle size calculated by volume) [3] [μm],D10 [3] [μm],D50 [3] [μm],D90 [3] [μm],Crystalline form change by XRPD ([4]; 40° C./75% RH for 2 weeks),Stability (verdict in words) [4],Chemical purity change by HPLC ([4]; 25° C./60% RH for 2 weeks),Crystalline form change by XRPD ([4]; 25° C./60% RH for 2 weeks),Chemical purity change by HPLC ([4]; 40° C./75% RH for 2 weeks)
"CC(C)Oc1ccc(-c2nc(-c3cccc4c3CC[C@@H]4NCCO)no2)cc1C#N [Form CS9, ozanimod]",2.88,hygroscopic,good solubility in water,470,360,339.9,50.97,284.3,728.7,–,–,–,–,–
"CC(C)Oc1ccc(-c2nc(-c3cccc4c3CC[C@@H]4NCCO)no2)cc1C#N [Form CS10, ozanimod]",1.02,slightly hygroscopic,–,–,–,317.2,65.87,254.8,669.0,No form change,good stability,–,–,–
"CC(C)Oc1ccc(-c2nc(-c3cccc4c3CC[C@@H]4NCCO)no2)cc1C#N [Form CS11, ozanimod]",0.57,slightly hygroscopic,–,–,–,137.7,27.13,110.4,286.6,No form change,good stability,No form change and obvious purity decrease,No form change,No form change and obvious purity decrease
